System: A375 human melanoma xenografts
Assay: Example 7 efficacy study in A375 human melanoma xenografts (tumor volume, T/C, TGI)
Format: in vivo, BALB/c nude mice
Details: 10 mg/kg, p.o.; for T/C / TGI / Tumor Size on PG-D14 (mean ± SEM): PG-D14
Description: For efficacy study, agents were tested in the A375 human melanoma xenografts. Compound 118, Compound 156, and Compound 180 were administered to BALB/c nude mice bearing A375 xenografts from day 0 and dosed p.o. twice per day (BID). Compound 141 was administered from day 0 and dosed p.o. twice per day (BID) or dosed p.o. daily (QD) from day 1. Compound 141, Compound 118, Compound 156, and Compound 180 were dosed at 10 mg/kg for 14 days. The known BRAF inhibitor Dabrafenib was used as a positive control. Dabrafenib was administered from day 1 and dosed p.o. daily (QD) for 14 days and dosed at 100 mg/kg.
The A375 tumor cells were maintained in vitro in DMEM medium supplemented with […] and 1% Penicillin-Streptomycin at 37° C. in an atmosphere of 5% CO2 in air. The tumor cells were routinely subcultured twice weekly. The cells growing in an exponential growth phase were harvested and counted for tumor inoculation.
Each mouse was inoculated subcutaneously at the right flank with A375 tumor cells (5×10^6) in 0.2 mL of PBS with Matrigel (PBS: Matrigel=1:1) supplemented for tumor development. Animals were grouped when the average tumor volume reached 246 mm^3 for efficacy study and 390 mm^3 for PKPD study on day 17 after tumor inoculation. The test articles administration and the animal numbers in each group are shown in the above experimental tables.
Prior to the onset of drug treatment, mice were measured for tumor size in two dimensions using a caliper, and the tumor volume (mm^3) was calculated using formula V=0.5 a×b^2 where a and b are the long and short diameters of the tumor in mm, respectively. Mice were randomized into different treatment groups based on the tumor volume.
The major endpoint was to see if the tumor growth could be delayed or mice could be cured. The tumor size was then used for calculations of T/C value. The T/C value (in percent) is an indication of antitumor effectiveness; T and C are the mean volumes of the treated and control groups, respectively on specified day.
TGI was calculated for each group using the formula: TGI (%)=[1−(Ti−T0)/(Ci−C0)]×100; Ti is the average tumor volume of a treatment group on a given day, T0 is the average tumor volume of the treatment group on the day of treatment start, Ci is the average tumor volume of the vehicle control group on the same day with Ti, and C0 is the average tumor volume of the vehicle group on the day of treatment start.

SMILES | T/C (BID × 14 days) [%] | TGI (BID × 14 days) [%] | Tumor Size on PG-D14 (mean ± SEM) (BID × 14 days) [mm^3] | Tumor Volume (mean ± SEM) (BID × 14 days, day 0) [mm^3] | Tumor Volume (mean ± SEM) (BID × 14 days, day 3) [mm^3] | Tumor Volume (mean ± SEM) (BID × 14 days, day 7) [mm^3] | Tumor Volume (mean ± SEM) (BID × 14 days, day 10) [mm^3] | Tumor Volume (mean ± SEM) (BID × 14 days, day 14) [mm^3] | T/C (QD × 14 days) [%] | TGI (QD × 14 days) [%] | Tumor Size on PG-D14 (mean ± SEM) (QD × 14 days) [mm^3] | Tumor Volume (mean ± SEM) (QD × 14 days, day 0) [mm^3] | Tumor Volume (mean ± SEM) (QD × 14 days, day 3) [mm^3] | Tumor Volume (mean ± SEM) (QD × 14 days, day 7) [mm^3] | Tumor Volume (mean ± SEM) (QD × 14 days, day 10) [mm^3] | Tumor Volume (mean ± SEM) (QD × 14 days, day 14) [mm^3]
CCN(C)S(=O)(=O)Nc1ccc(F)c(Oc2ccc3ncn(C4CC5(CCN(C6CC7(C6)CN(c6cc8c(cc6F)c(N6CCC(=O)NC6=O)nn8C)C7)CC5)C4)c(=O)c3c2)c1C#N (stereo not drawn) [Compound 141, 6-[2-cyano-3-[[ethyl(methyl)sulfamoyl]amino]-6-fluoro-phenoxy]-3-[7-[2-[3-(2,4-dioxohexahydropyrimidin-1-yl)-5-fluoro-1-methyl-indazol-6-yl]-2-azaspiro[3.3]heptan-6-yl]-7-azaspiro[3.5]nonan-2-yl]-4-oxo-quinazoline] | 2.4 | 119.8 | 32 ± 4 | 246 ± 15 | 181 ± 15 | 109 ± 13 | 59 ± 6 | 32 ± 4 | 3.0 | 119.0 | 40 ± 6 | 246 ± 12 | 275 ± 9 | 138 ± 13 | 81 ± 9 | 40 ± 6
CCN(C)S(=O)(=O)Nc1ccc(F)c(Oc2ccc3ncn(C4CC5(CCN(C6CCN(c7cc8c(cc7F)c(N7CCC(=O)NC7=O)nn8C)CC6)CC5)C4)c(=O)c3c2)c1C#N [Compound 156, 6-[2-cyano-3-[[ethyl(methyl)sulfamoyl]amino]-6-fluoro-phenoxy]-3-[7-[1-[3-(2,4-dioxohexahydropyrimidin-1-yl)-5-fluoro-1-methyl-indazol-6-yl]-4-piperidyl]-7-azaspiro[3.5]nonan-2-yl]-4-oxo-quinazoline] | 2.6 | 119.6 | 34 ± 5 | 246 ± 13 | 203 ± 16 | 111 ± 4 | 68 ± 3 | 34 ± 5 |  |  |  |  |  |  |  | 
